{"source": "patent US10093712B2", "about": "“Immunostimulatory compositions and uses thereof” (Susavion Biosciences, Inc., priority 2004, dated 2018)", "key": {"[1]": {"test_system": "recurring, advanced cancer", "settings": "for quality of life: canine cancer patients, subjective; for tumor load / size of the primary tumor: several patients / some cases", "method": "Owners of dogs that were used to obtain preliminary data were required to sign informed consent and agreement to necropsy forms. Dogs with histologically or cytologically confirmed cancer were given the polypeptide mimetic at doses of 100 to 1,500µg by weekly perfusion into the blood or subcutaneously 3 times per week. The effective dose of the glycopeptide used by Schneider et al. (2003) was 0.4 ng/g body weight given every other day. On this basis, a minimal weekly dose should be 1.4 ng/g body weight. For a large animal (80 lb or 36 kg dog), the starting, minimal-effective, weekly dose of the synthetic mimetic polypeptide would therefore be 50µg or 6.8 nmoles. For initial studies, the mimetic polypeptide (FIG. 4) was administered at a 20-fold higher dose."}, "[2]": {"test_system": "peripheral blood adherent cells", "assay": "Pyrogallol oxidation initiated by superoxide anion radical from peripheral blood adherent cells", "type": "cell-based", "settings": "3.4, 1.7 or 0.7 nM versus 50 ng/ml lipopolysaccharide, FIG. 8", "method": "FIG. 8. Assay of pyrogallol oxidation initiated by superoxide anion radical generation by peripheral blood adherent cells treated with stimulants. Samples 1, 2, and 3, contained 3.4, 1.7 or 0.7 nM (25, 12.5 or 5 ng/ml) of the branched mimetic, respectively. Sample 4 contained 50 ng/ml lipopolysaccharide. Sample 5, untreated control cells.\n(§1) Oxidative burst: Peripheral blood samples were removed from animals and 300 μl added to wells of a 96-well microtiter plate and incubated overnight at 38° C. in a standard CO2-incubator. The nonadherent cells, including erythrocytes, and serum were removed and centrifuged to pellet cells and obtain cell-free serum. RPMI 1640 medium containing 2 to 10% serum from the same animal were added to each well and incubation of the culture is continued for various periods of time. The polypeptide mimetic was then added to a concentration of 1 to 10 nM and incubation continued for 3 h.\nThe response of cells to the polypeptide was also assayed by oxidation of pyrogallol (Marldund and Marklund, 1974) in a reaction initiated by superoxide anion radical (FIG. 8)."}, "[3]": {"settings": "pH 7.4", "excerpt": "The product was dried and then dissolved in sterile phosphate buffered saline, pH 7.4."}, "[4]": {"test_system": "adherent macrophages or neutrophils from canine peripheral blood", "assay": "Phagocytosis of fluorescent polystyrene beads", "type": "cell-based", "settings": "3.4 nM (25 ng/ml)", "method": "(§2) Phagocytosis: Phagocytosis was measured by the uptake of fluorescently-labeled bacterial cells (Molecular Probes, Inc.) or fluorescent polystyrene beads (Polyscience, Inc). Phagocytosis can be quantitated by quenching extracellular (unphagocytized) bacterial cells by addition of the dye trypan blue to the suspension and measuring the remaining (intracellular) fluorescence (Wan et al., 1993).\nPhagocytosis of polystyrene beads: Peripheral blood from the canines was added to confocal dishes and incubated over night to allow macrophage adherence. The cells were washed away with PBS, HBSS, or RPMI. Only adherent macrophages or neutrophils remained on the glass surface and were left to incubate in the above mentioned buffers. Polypeptide was then added at 3.4 nM (25 ng/ml) for a 5-hour incubation. At this point, beads were added for a 10-minute incubation. All incubations were done in 37° C. with 5% CO2."}, "[5]": {"test_system": "canine peripheral blood macrophages", "assay": "Phagocytosis of fluorescently labeled bacterial cells, trypan blue quench, microscopy", "type": "cell-based", "settings": "for phagocytosis of bacterial cells: then bacterial cells 10 minutes", "method": "FIG. 9. Microscopic analysis of phagocytosis of fluorescently labeled bacterial cells by adherent cells from canine peripheral blood samples. […] The sample was treated 15 h with 5 nM branched peptide mimetic and then incubated with fluorescently-labeled bacterial cells for 10 min. Fluorescence of bacterial cells that remained extracellular was quenched with trypan blue. […] The samples were not treated with the peptide mimetic, and most of the cells, as in (D) were not fluorescent. A very low level of fluorescence, evidence of low phagocytic activity, was occasionally seen, as shown in (C). Gain was set to maximize detection of fluorescence. Such control samples show the highest level of phagocytosis of bacterial that we have observed. In many experiments, control cells show no fluorescence.\nas §2\nIn one experiment, canine peripheral blood macrophages were treated for 15 hours with 5 nM branched polypeptide (FIG. 4), and then incubated with bacterial cells for 10 minutes, followed by microscopic analysis. Fluorescence of bacterial cells that remained extracellular was quenched with trypan blue. […] (See FIG. 9)\nIn another experiment, adherent canine peripheral blood cells were treated for 5 hours with 10 nM branched polypeptide (FIG. 4) and then washed. Fluorescent bacterial cells were added, and after 10 minutes, trypan blue was added to quench extracellular bacterial cells. Cells were examined by light microscopy and then by fluorescent microscopy. Contrast in the fluorescent images was maximized to detect any fluorescence in control samples. […] Treated and control samples were from the same dog."}, "[6]": {"test_system": "adherent peripheral blood cells", "assay": "Oxidative burst of adherent peripheral blood cells, change in absorbance of cytochrome c after PMA", "type": "cell-based", "method": "FIG. 7. Response of adherent peripheral blood cells to mimetic peptides. Reduction of cytochrome c by superoxide anion radical is indicated by an increase in absorbance (OD), whereas a loss of absorbance indicates destruction of the cytochrome. (A) Total adherent cells from 300 μl of blood were assayed. Samples 1 and 2 contained 5 nM and 2.5 nM branched mimetic peptide, respectively. Samples 3 and 4 contained 5 nM and 2.5 nM linear mimetic peptide, respectively. Sample 5 contained 50 ng/ml lipopolysaccharide (weight equivalent to 6 nM peptide). Sample 6, untreated control cells. (B) Adherent cells were scraped from the surface and 1×10^5 cells were placed in each well. The assay was performed as in (A). Samples 1 and 2 contained 10 nM and 5 nM mimetic peptide, respectively. Samples 3 and 4 contained 10 nM and 5 nM linear peptide, respectively. Sample 5 contained 50 ng/ml lipopolysaccharide. Sample 6, untreated control cells.\nas §1\nOne type of assay of cellular activity measures the response of adherent cells to the polypeptide mimetic by the change in absorbance of cytochrome c (Johnston et al., 1978; Pick and Mizel, 1981). Phorbol 12-myristate 13-acetate (PMA) was added to 140 nM and then cytochrome c was added to 15 μM. Change in absorbance was monitored continuously at 550 nm over 20 min. With 300 μl in each well, reduction of cytochrome c was calculated as: Δnanomoles=absorbance at 550 nm×100/2.1 (Pick and Mizel, 1981). Positive control samples were run with lipopolysaccharide, a known stimulator of macrophage activity. Negative controls lack stimulant.\nThe oxidative burst upon addition of PMA involves production of the superoxide anion radical. The superoxide anion radical is a strong reducing agent and reduces cytochrome c, which is detected by an increase in absorbance of the sample. Additionally, these cells produce the nitric oxide radical, which reacts with superoxide anion radical at diffusion-limited rates to produce the strong oxidant, peroxynitrite anion (Ischiropoulos et al., 1992). These strong oxidants apparently cause loss of absorbance of the cytochrome.\nWithout treatment with the polypeptide, again no change in absorbance of the cytochrome was detected."}}, "note": "Read-outs that look alike come from different tables or passages of the source. Where no end group is shown, it is not given here."}
{"substance": "[(VQATQSNQHTPRGGGS)2K]2K.beta.AC (not fully specified (C-terminus); printed as [(VQATQSNQHTPRGGGS)2K]2K.beta.AC; also: four-branch lysine core [(seq)2K]2K, betaAla-Cys on core) [branched polypeptide mimetic]", "values": [{"measurement": "quality of life", "setting": "[1]; listed as branched peptide mimetic", "value": "dramatic improvement in quality of life"}, {"measurement": "quality of life", "setting": "[1]; listed as polypeptide", "value": "remarkable extension and improvement in the quality of life"}, {"measurement": "quality of life", "setting": "[1]; listed as polypeptide mimetic", "value": "dramatically enhanced"}, {"measurement": "survival on the treatment", "setting": "[1]; several animals, advanced cancer", "value": "≥ 6", "unit": "months"}, {"measurement": "extension of life", "setting": "[1]; several canine patients with advanced cancer", "value": "extension of life beyond what would be normally expected"}, {"measurement": "behavior", "setting": "[1]; several patients", "value": "restored to pre-disease activities"}, {"measurement": "tumor load / size of the primary tumor", "setting": "[1]; listed as polypeptide", "value": "reduction in size of the primary tumor"}, {"measurement": "tumor load / size of the primary tumor", "setting": "[1]; listed as polypeptide mimetic", "value": "reduction in tumor load was detected"}, {"measurement": "oxidation of pyrogallol, activity as stimulant", "setting": "[2]", "value": "most active stimulant"}, {"measurement": "stability of the product", "setting": "[3]", "value": "at least 3 months"}, {"measurement": "detachment of neutrophils from the surface", "setting": "[4]", "value": "induced detachment of neutrophils from the surface"}, {"measurement": "phagocytosis of polystyrene beads", "setting": "[4]; 5-hour incubation, 10 to 30 minutes after bead addition", "value": "presence of the beads within cells"}, {"measurement": "phagocytosis of bacterial cells", "setting": "[5]; 5 nM for 15 hours", "value": "dramatically increased phagocytosis"}, {"measurement": "attachment of neutrophils", "setting": "[5]; 10 nM for 5 hours", "value": "more of the smaller neutrophils become attached"}, {"measurement": "phagocytosis of bacterial cells", "setting": "[5]; 10 nM for 5 hours", "value": "dramatically increased phagocytosis"}, {"measurement": "oxidative burst response compared with linear polypeptide", "setting": "[6]; FIG. 7", "value": "stronger response than the linear polypeptide"}, {"measurement": "change in absorbance of cytochrome c", "setting": "[6]; higher concentrations of polypeptide (5 to 10 nM), FIG. 7A", "value": "rapid loss of absorbance"}, {"measurement": "change in absorbance of cytochrome c", "setting": "[6]; low concentrations of mimetic polypeptide (1 nM), PMA 140 nM, cytochrome c 15 μM, 550 nm", "value": "increase in absorbance of cytochrome c"}, {"measurement": "rate of reduction of cytochrome c", "setting": "[6]; lowered cell number (1×10^5 cells per well), FIG. 7B", "value": "correlated with the amount of polypeptide mimetic added"}, {"measurement": "oxidative burst response compared with lipopolysaccharide", "setting": "[6]; on an equal weight basis", "value": "even stronger than to lipopolysaccharide"}]}
{"substance": "lipopolysaccharide [reference compound]", "values": [{"measurement": "change in absorbance of cytochrome c", "setting": "[6]; lipopolysaccharide positive control", "value": "increase in absorbance of cytochrome c"}]}
